Measurements reported in patent publication US6207393A, “Inhibition of intracellular signal transduction by 14-3-3-binding peptides” (Washington University, priority 1999, dated 2001).
pIC50: −log10 of the molar value. “And” between values parts separate entries of the source, which are not always exact repeats. Equal entries are not always repeated. Where a SMILES comes first, the peptide text is derived from it. [ ]: non-standard residue; d: D form. pS = N[C@@H](COP(=O)(O)O)C(=O)O

Key:
14-3-3 zeta [1] = biological target: T1, 14-3-3 zeta (Homo sapiens, UniProt P63104); test: Displacement of 32P-labeled phosphorylated Raf-259 peptide from immobilized GST/14-3-3 zeta (scintigraphy); type: binding; settings: non-radiolabeled competitors
T1 construct: made in house; host or cells: E. coli DH5α (vector pGEX-KT)
T1 sequence (P63104 1-245): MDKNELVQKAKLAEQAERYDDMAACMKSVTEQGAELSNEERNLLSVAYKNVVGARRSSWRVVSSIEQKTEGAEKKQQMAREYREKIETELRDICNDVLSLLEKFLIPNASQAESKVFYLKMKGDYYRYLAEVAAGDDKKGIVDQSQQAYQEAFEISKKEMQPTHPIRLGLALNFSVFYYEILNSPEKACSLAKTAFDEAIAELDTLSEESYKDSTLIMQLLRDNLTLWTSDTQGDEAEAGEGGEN
Method: The 14-3-3 protein isoforms for use in binding studies with the above peptides were prepared as proteins fused with glutathione-S-transferase (GST) and immobilized to glutathione agarose beads. GST/14-3-3 fusion proteins were made by generating BamHI and EcoRI restriction endonuclease sites (underlined) at the 5' and 3' ends respectively of the 14-3-3 cDNAs by polymerase chain reaction (PCR) using the following isoform sequence specific pairs of primers: 14-3-3 beta, […] (SEQ ID NO: 11), […] (SEQ ID NO: 12); 14-3-3 eta […] (SEQ ID NO: 13), […] (SEQ ID NO: 14); 14-3-3 tau […] (SEQ ID NO: 15), […] (SEQ ID NO: 16); 14-3-3 zeta […] (SEQ ID NO: 17), […] (SEQ ID NO: 18). The cDNA products were digested with BamHI and EcoRI, subcloned into the vector pGEX-KT (Guan and Dixon, Anal Biochem 192: 262-7, 1991 which is incorporated by reference). The vector was used to transform the DH5α strain of E. Coli. GST-14-3-3 fusion protein expression in log-growth phase bacterial cultures was accomplished by induction with 100 μM isopropyl β-D-thiogalactopyranoside (IPTG; Gold Biotechnology, St. Louis) for 4 hours. Cells were disrupted by sonication and lysates, containing 1% Triton X-100, were incubated with glutathione agarose beads (Sigma, St. Louis) at 4° C. overnight. Fusion proteins were eluted by incubation with 10 mM reduced glutathione (Sigma, St. Louis) in phosphate buffered saline for 1 hour at room temperature, dialyzed in phosphate buffered saline and quantitated by Coomassie staining SDS polyacrylamine gels compared against bovine serum albumin standards.
The Raf-259 peptide (SEQ ID NO: 4) was phosphorylated in vitro using protein kinase A (PKA) and [^32 P]-γ-ATP following the manufacturers instruction (PKA, New England Biolabs) with 20 μCi of [^32 P]-γ-ATP (NEN-Dupont, 6000 Ci/mmol). The efficiency of phosphorylation was calculated to be between 7 and 12% based upon the specific activity of the labelled peptide.
The labeled peptide was then incubated with immobilized 14-3-3 zeta fusion protein and binding of the labelled peptide was measured. […] Binding was also sequence specific. […]

14-3-3 protein = biological target: T2, 14-3-3 protein (Homo sapiens, UniProt P63104); test: Degenerate peptide pools tested as competitive inhibitors of 14-3-3 binding; settings: competitor peptide 10 μM; no peptide = 100%
T2 sequence (P63104 1-245): T1 sequence (P63104 1-245)
Method: A series of degenerate peptides based upon phosphoserine Raf-621 peptide (SEQ ID NO: 10) were synthesized to confirm that the arginine in the -3 position, the serine in the -2 position and the proline in the +2 position were the critical motif residues (Table 5). Six pools of peptides were synthesized with all twenty amino acids placed in positions -5, -3, -2, -1, +1 and +2 respectively. Each pool of twenty peptides was tested as competitive inhibitors for binding. We reasoned that if a particular position is not critical for binding, the pool of twenty peptides should compete as well as wild-type peptide for binding. On the other hand, if a particular amino acid is required at a particular position, only a small fraction of the pool will be able to compete for binding, thus increasing (up to 20 fold) the concentration of peptide needed to inhibit binding.

14-3-3 zeta [2] = biological target: T1, 14-3-3 zeta; test: SPR competitive inhibition of 14-3-3 zeta binding to chip-coupled phosphorylated Raf-259 peptide; settings: 14-3-3 zeta 0.5-1.0 μM; competitor 1-50 μM; relative affinity only
Method: (§1) The ability of each peptide to inhibit binding of 14-3-3 zeta to the phosphorylated peptide was then tested in a range of concentrations between 1 and 50 μM. 14-3-3 zeta was prepared according to the methods in Example 1 and binding affinities and specificities were determined using the peptides in Table 2. The 14-3-3 zeta fusion proteins (0.5-1.0 μM) were pre-incubated with a given peptide at concentrations between 1 μM and 50 μM. 14-3-3 zeta was then infused across a sensor chip surface which had been previously coupled with the phosphorylated Raf-259 peptide (SEQ ID NO: 4). IC50 values were determined by plotting the concentration of competitor peptide required to achieve a 50% reduction in equilibrium binding.

14-3-3 eta = biological target: T3, 14-3-3 eta (Homo sapiens, UniProt Q04917); test: SPR competitive inhibition of 14-3-3 eta binding to phosphorylated Raf-259 peptide; settings: isoform eta
T3 construct: made in house; host or cells: E. coli DH5α (vector pGEX-KT)
T3 sequence (Q04917 1-246): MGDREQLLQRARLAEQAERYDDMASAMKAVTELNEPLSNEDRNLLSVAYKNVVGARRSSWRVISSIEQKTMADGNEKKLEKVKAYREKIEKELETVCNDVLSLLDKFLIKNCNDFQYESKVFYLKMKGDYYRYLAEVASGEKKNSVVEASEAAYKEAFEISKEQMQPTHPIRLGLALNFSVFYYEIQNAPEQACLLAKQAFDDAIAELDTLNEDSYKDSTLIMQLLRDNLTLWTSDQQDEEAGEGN
Method: as §1
(§2) There are seven known isoforms of 14-3-3 which form homo- and heterodimers in vivo. If different isoforms of 14-3-3 could bind to proteins with distinct specificities, heterodimeric forms of 14-3-3 might function as modular linker proteins, bringing together different proteins into a single complex. We were, therefore, interested in determining whether different 14-3-3 isoforms recognize phosphoserine in a sequence specific fashion. This hypothesis was tested by expressing and purifying three other 14-3-3 isoforms, eta, beta and tau, and measuring their affinity towards the panel of phosphorylated peptides generated above. Using the Surface Plasmon Resonance method, the "on" and "off" rates for 14-3-3 binding to the phosphorylated Raf-259 peptide were calculated (Table 6).
(§3) Competitive inhibition with the mutated phosphorylated Raf-1 peptides was used to determine whether their specificities were similar (Table 7). In each case, the calculated IC50 s were very similar to those calculated for 14-3-3 zeta.

14-3-3 beta = biological target: T4, 14-3-3 beta (Homo sapiens, UniProt P31946); test: SPR competitive inhibition of 14-3-3 beta binding to phosphorylated Raf-259 peptide; settings: isoform beta
T4 construct: made in house; host or cells: E. coli DH5α (vector pGEX-KT)
T4 sequence (P31946 1-246): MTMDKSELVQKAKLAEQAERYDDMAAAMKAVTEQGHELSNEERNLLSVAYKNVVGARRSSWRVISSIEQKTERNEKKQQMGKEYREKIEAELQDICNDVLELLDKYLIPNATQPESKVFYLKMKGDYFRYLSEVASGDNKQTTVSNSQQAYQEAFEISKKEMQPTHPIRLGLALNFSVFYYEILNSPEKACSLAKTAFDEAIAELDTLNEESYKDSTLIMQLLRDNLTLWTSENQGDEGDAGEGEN
Method: as §1, §2, §3

14-3-3 tau = biological target: T5, 14-3-3 tau (Homo sapiens, UniProt P27348); test: SPR competitive inhibition of 14-3-3 tau binding to phosphorylated Raf-259 peptide; settings: isoform tau
T5 construct: made in house; host or cells: E. coli DH5α (vector pGEX-KT)
T5 sequence (P27348 1-245): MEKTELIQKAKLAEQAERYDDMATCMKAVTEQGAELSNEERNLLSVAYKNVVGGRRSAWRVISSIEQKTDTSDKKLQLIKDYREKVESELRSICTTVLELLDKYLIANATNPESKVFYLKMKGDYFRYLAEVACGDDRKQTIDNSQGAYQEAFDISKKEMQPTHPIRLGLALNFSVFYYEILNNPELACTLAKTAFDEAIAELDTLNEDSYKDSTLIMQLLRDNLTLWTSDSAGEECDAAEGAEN
Method: as §1, §2, §3

Row | SMILES | displacement of bound labeled phosphorylated peptide from 14-3-3 zeta (14-3-3 zeta [1]) | % BINDING @ 10 μM (14-3-3 protein) [%] | pIC50 (14-3-3 zeta [2]) | pIC50 (14-3-3 eta) | pIC50 (14-3-3 beta) | pIC50 (14-3-3 tau)
1 | N[C@@H](COP(=O)(O)O)C(=O)O [free phosphoserine, phosphoserine] | Neither | – | – | – | – | –
2 | CC[C@H](C)[C@H](NC(=O)[C@H](CCCCN)NC(=O)[C@@H]1CCCN1C(=O)[C@@H](N)CC(C)C)C(=O)N[C@@H](CC(N)=O)C(=O)N[C@@H](CCCNC(=N)N)C(=O)N[C@@H](CO)C(=O)N[C@@H](C)C(=O)N[C@@H](COP(=O)(O)O)C(=O)N[C@@H](CCC(=O)O)C(=O)N1CCC[C@H]1C(=O)N[C@@H](CO)C(=O)N[C@@H](CC(C)C)C(=O)N[C@@H](Cc1c[nH]cn1)C(=O)N[C@@H](CCCNC(=N)N)C(=O)O [pS-Raf-621, Leu-Pro-Lys-Ile-Asn-Arg-Ser-Ala-Xaa-Glu-Pro-Ser-Leu-His-Arg] (H-LPKINRSA[pS]EPSLHR-OH) | – | < 5 | ~6.00 and 6.00 | 5.52 | 5.70 | 5.70
